Experimental data taken from paper PMC12348844, “Anti-Trypanosoma cruzi Potential of New Pyrazole-Imidazoline Derivatives” (Molecules, 2025).
Like-named read-outs stand apart in the source and are kept apart here.

Experiments:
[1] = test system: intracellular amastigotes of T. cruzi; experiment: Drug combination with Bz, fixed-ratio isobologram, intracellular amastigotes; format: cell-based; conditions: Trypanosoma cruzi; proportion 1k:Bz 5:0, 72 h; read-out: IC50 (Mean ± DP) in combination assay
Protocol: The isobologram approach assessed the interaction between Bz and the promising candidate in intracellular amastigotes of T. cruzi. Vero cell cultures infected with T. cruzi (Dm28c-Luc) were treated for 72 h with various concentrations of combinations of Bz and the promising candidate, specifically at ratios of 5:0; 4:1; 3:2; 2:3; 1:4 and 0:5. The maximum concentration of each compound was established based on their IC50 values, ensuring both reached the fourth dilution in the serial dilution setup (1:3), culminating in a total of seven dilutions. After 72 h of treatment, parasite viability was measured by luminescence in a Glomax Multi-Detection plate reader (Promega Corporation, Madison, WI, USA) after incubation with luciferin. The IC50 values of each treatment combination were calculated individually, and the fractional inhibitory concentration index (FICI) was derived using the formula FICI = IC50 of the combination/IC50 of the compound alone. The overall FICI (ΣFICI) was calculated by summing the FICIs for both compounds in each combination group, while the average ΣFICI (xΣFICI) represented the overall mean across all combination groups. The xΣFICI values were then employed to classify the interaction as synergistic (xΣFICI ≤ 0.5), additive (0.5 < xΣFICI < 4), or antagonistic (xΣFICI > 4). […]

T. cruzi (Dm28c-Luc) = experiment: Reversibility (washout) assay in T. cruzi-infected Vero cells; format: cell-based, Trypanosoma cruzi; conditions: for parasite load of cell monolayer at 21 dpi (luminescence): untreated 5 × 10^5 A.L.U
Protocol: After treatment, the cultures were thoroughly washed, and parasite recrudescence was evaluated over an extended period of 10 days in RPMI medium supplemented with 10% fetal bovine serum (FBS). Culture supernatants were collected at intervals, and the luminescence signal indicative of trypomastigote release was assessed using a Glomax Multi-Detection plate reader (Promega Corporation, Madison, WI, USA) following the addition of luciferin every 2–3 days. At the experiment’s conclusion, the infection profile of the monolayer was also examined. Cells were fixed with PFA for 20 min at 4 °C, then stained with DAPI for microscopy analysis. Luminescence data were expressed in arbitrary luminescent units (A.L.U), and fluorescence images were acquired using the ImageXpress Micro XLS high-content screening (HCS) system (Molecular Devices, Sunnyvale, CA, USA).

[2] = test system: T. cruzi Dm28c-Luc intracellular amastigotes; experiment: Anti-T. cruzi in vitro assay, intracellular amastigotes in Vero cells (luminescence); format: cell-based, Trypanosoma cruzi; conditions: for IC50: Vero
Protocol: The genetically modified Trypanosoma cruzi, clone Dm28c (TcI), expressing luciferase (Dm28c-Luc), was kindly provided by Dr. Cristina Henriques from Oswaldo Cruz Institute—Fiocruz. The parasites were maintained using Vero cell cultures in RPMI 1640 medium enriched with 10% FBS. At 4 days post-infection (dpi), the trypomastigotes released into the culture supernatant were harvested, subjected to centrifugation at 800× g for 20 min at 4 °C, and quantified with a Neubauer chamber. The isolated trypomastigotes were subsequently used for phenotypic screening, drug efficacy assessments employing a 3D cardiac model, washout experiments to evaluate reversibility, drug combination studies, and enzymatic assays.
To evaluate the effect of pyrazole-imidazoline derivatives against intracellular amastigotes, Vero cells (1.5 × 10^4 cells/well) were cultured in a white 96-well plate with a clear bottom and subsequently infected with T. cruzi Dm28c-Luc at a 10:1 parasite-to-host cell ratio for 24 h. […] Parasite viability was measured by luminescence following the addition of luciferin (300 µg/mL). Background measurements (non-infected cultures incubated with luciferin, as well as luciferin-only controls) were performed to ensure the signal specifically originates from viable parasites. The IC50 and IC90 values, denoting the concentrations that achieve 50% and 90% reductions in viable parasites, respectively, were calculated using GraphPad Prism 8.2.1 software. Additionally, the selectivity index (SI) was calculated as the cytotoxic concentration (CC50) ratio in mammalian cells to the IC50 against T. cruzi, providing insight into the therapeutic window. Potency against intracellular amastigotes was evaluated using the formula 6—Log10 (IC50).

FC(F)(F)c1ccc(-n2cc(C3=NCCN3)cn2)cc1 [1k, 1-(4-trifluoromethylphenyl)-4-(4,5-dihydro-1H-imidazol-2-yl)-1H-pyrazole]
IC50 [1]: 3.75 ± 0.35 µM | parasite load of cell monolayer at 21 dpi (luminescence) (T. cruzi (Dm28c-Luc); 28.8 µM): 4 × 10^4 A.L.U | parasite load of cell monolayer at 21 dpi (luminescence) (T. cruzi (Dm28c-Luc); 57.6 µM): 1.1 × 10^4 A.L.U | sterility of cultures in reversibility assay (T. cruzi (Dm28c-Luc); 10 days treatment, tested conditions): failed to achieve sterility | inhibition at 28.8 µM (T. cruzi (Dm28c-Luc); Trypanosoma cruzi, Vero, 240 h, 28.8 µM (IC90), 10 days treatment + 10 days washout, read-out: inhibition of parasite load of cell monolayer at 21 dpi): 92% | SI (selectivity index = CC50/IC50) ([2]; CC50 Vero cells / IC50 intracellular amastigotes): 73.9 | IC50 ([2]; Trypanosoma cruzi, 72 h, Dm28c-Luc in Vero cells, mean ± SD, read-out: Intracellular Amastigotes IC50): 3.3 ± 0.2 µM | IC50 ([2]; Trypanosoma cruzi, intracellular amastigotes, 6 − Log10(IC50), read-out: pIC50 (potency) (converted)): 3.98 µM | IC90 ([2]; Trypanosoma cruzi, 72 h, Dm28c-Luc in Vero cells, mean ± SD): 28.1 ± 0.4 µM | enhancement in anti-T. cruzi activity relative to the hit compound ([2]; hit compound = 5-amino-pyrazole-imidazoline): 5 fold
